Reference: PubChem BioAssay AID2060610 (Molecular Pharmacology Branch, DTP, NCI, 2025)
Several values for one entry are separate records, joined by “and”; a condition that tells them apart may be missing. Equal entries are not always repeated. Values belong to the molecule of their own block, whether it stands above or below them.

System: 616215-338-R-J1-PDC complex spheroids, viability % test/control
Experiment: Anticancer human tumor 616215-338-R-J1-PDC patient-derived colon adenocarcinoma cell line growth inhibition [CLK]
Conditions: for viability, T/C: stronger effect = lower value
In short: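 Patient-derived tumor cells grown as complex spheroids with HUVEC endothelial cells and mesenchymal stem cells, treated with drug combinations. Concentrations descend in half-log steps from near clinical Cmax, or from 10 microM if Cmax unknown.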

[1] = curve of first compound, second compound 0.0316 µM
[2] = curve of first compound, second compound 0.1 µM
[3] = curve of first compound, second compound 0.316 µM
[4] = curve of first compound, second compound 1 µM
[5] = curve of first compound, second compound 3.16 µM
[6] = curve of first compound, second compound 10 µM
[7] = second compound 0.0316 µM, first compound 0.0316 µM
[8] = second compound 0.0316 µM, first compound 0.1 µM
[9] = second compound 0.1 µM, first compound 0.0316 µM
[10] = second compound 0.1 µM, first compound 0.1 µM
[11] = second compound 0.316 µM, first compound 0.0316 µM
[12] = second compound 0.316 µM, first compound 0.1 µM
[13] = second compound 1 µM, first compound 0.0316 µM
[14] = second compound 1 µM, first compound 0.1 µM
[15] = second compound 3.16 µM, first compound 0.0316 µM
[16] = second compound 3.16 µM, first compound 0.1 µM
[17] = second compound 10 µM, first compound 0.0316 µM
[18] = second compound 10 µM, first compound 0.1 µM
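Further: spheroids exposed to agents for 7 days.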
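Wherever viability, T/C is given: 100% = DMSO vehicle wells.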

- IC50 [1]: > 10000 nM
- IC50 [2]: > 10000 nM
- IC50 [3]: < 31.6 nM
- IC50 [4]: > 10000 nM
- IC50 [5]: < 31.6 nM
- IC50 [6]: < 31.6 nM
SMILES: C=CC(=O)N1CCN(c2nc(=O)n(-c3c(C)ccnc3C(C)C)c3nc(-c4c(O)cccc4F)c(F)cc23)C(C)C1 (stereo unspecified) + CNC(=O)c1ccc(Nc2nc(OC3CCCC3)c3c(-c4ccc5nc(C)oc5c4)c[nH]c3n2)c(OC)c1
- viability, T/C [7]: 89.8%
- viability, T/C [8]: 94.6%
- viability, T/C (second compound 0.0316 µM, first compound 0.316 µM): 92.8%
- viability, T/C (second compound 0.0316 µM, first compound 1 µM): 93.2%
- viability, T/C (second compound 0.0316 µM, first compound 3.16 µM): 94.6%
- viability, T/C (second compound 0.0316 µM, first compound 10 µM): 95.1%
- viability, T/C [9]: 53.8%
- viability, T/C [10]: 67.8%
- viability, T/C (second compound 0.1 µM, first compound 0.316 µM): 60.8%
- viability, T/C (second compound 0.1 µM, first compound 1 µM): 64%
- viability, T/C (second compound 0.1 µM, first compound 3.16 µM): 55.1%
- viability, T/C (second compound 0.1 µM, first compound 10 µM): 56.4%
- viability, T/C [11]: 49.7%
- viability, T/C [12]: 44.8%
- viability, T/C (second compound 0.316 µM, first compound 0.316 µM): 46.9%
- viability, T/C (second compound 0.316 µM, first compound 1 µM): 49.8%
- viability, T/C (second compound 0.316 µM, first compound 3.16 µM): 53.1%
- viability, T/C (second compound 0.316 µM, first compound 10 µM): 49.2%
- viability, T/C [13]: 58.5%
- viability, T/C [14]: 49.1%
- viability, T/C (second compound 1 µM, first compound 0.316 µM): 50.4%
- viability, T/C (second compound 1 µM, first compound 1 µM): 48.9%
- viability, T/C (second compound 1 µM, first compound 3.16 µM): 54.6%
- viability, T/C (second compound 1 µM, first compound 10 µM): 54.6%
- viability, T/C [15]: 43.2%
- viability, T/C [16]: 45.2%
- viability, T/C (second compound 3.16 µM, first compound 0.316 µM): 40.1%
- viability, T/C (second compound 3.16 µM, first compound 1 µM): 49.1%
- viability, T/C (second compound 3.16 µM, first compound 3.16 µM): 59.3%
- viability, T/C (second compound 3.16 µM, first compound 10 µM): 52.6%
- viability, T/C [17]: 43.5%
- viability, T/C [18]: 41.3%
- viability, T/C (second compound 10 µM, first compound 0.316 µM): 46.3%
- viability, T/C (second compound 10 µM, first compound 1 µM): 56.6%
- viability, T/C (second compound 10 µM, first compound 3.16 µM): 53.6%
- viability, T/C (second compound 10 µM, first compound 10 µM): 54.8%

SMILES: Cn1ncnc1[C@H]1c2n[nH]c(=O)c3cc(F)cc(c23)N[C@@H]1c1ccc(F)cc1 + CN1CCN(c2cc(C(=O)Nc3cc4cc(-c5cnn(C)c5)ccc4cn3)ccn2)CC1
- IC50 [1]: > 100 nM
- IC50 [2]: > 100 nM
- IC50 [3]: < 0.316 nM
- IC50 [4]: < 0.316 nM
- IC50 [5]: < 0.316 nM
- IC50 [6]: < 0.316 nM
- viability, T/C (second compound 0.0316 µM, first compound 0.000316 µM): 113%
- viability, T/C (second compound 0.0316 µM, first compound 0.001 µM): 96.3%
- viability, T/C (second compound 0.0316 µM, first compound 0.00316 µM): 99.7%
- viability, T/C (second compound 0.0316 µM, first compound 0.01 µM): 122%
- viability, T/C [7]: 98.3%
- viability, T/C [8]: 112%
- viability, T/C (second compound 0.1 µM, first compound 0.000316 µM): 119%
- viability, T/C (second compound 0.1 µM, first compound 0.001 µM): 106%
- viability, T/C (second compound 0.1 µM, first compound 0.00316 µM): 102%
- viability, T/C (second compound 0.1 µM, first compound 0.01 µM): 105%
- viability, T/C [9]: 101%
- viability, T/C [10]: 69.5%
- viability, T/C (second compound 0.316 µM, first compound 0.000316 µM): 29.3%
- viability, T/C (second compound 0.316 µM, first compound 0.001 µM): 35.2%
- viability, T/C (second compound 0.316 µM, first compound 0.00316 µM): 39.2%
- viability, T/C (second compound 0.316 µM, first compound 0.01 µM): 38.7%
- viability, T/C [11]: 36.5%
- viability, T/C [12]: 32%
- viability, T/C (second compound 1 µM, first compound 0.000316 µM): 0.12%
- viability, T/C (second compound 1 µM, first compound 0.001 µM): 0.14%
- viability, T/C (second compound 1 µM, first compound 0.00316 µM): 1.57%
- viability, T/C (second compound 1 µM, first compound 0.01 µM): 0.1%
- viability, T/C [13]: 1.12%
- viability, T/C [14]: 4.26%
- viability, T/C (second compound 3.16 µM, first compound 0.000316 µM): 0.1%
- viability, T/C (second compound 3.16 µM, first compound 0.001 µM): 0.14%
- viability, T/C (second compound 3.16 µM, first compound 0.00316 µM): 2.13%
- viability, T/C (second compound 3.16 µM, first compound 0.01 µM): 0.09%
- viability, T/C [15]: 0.08%
- viability, T/C [16]: 1.74%
- viability, T/C (second compound 10 µM, first compound 0.000316 µM): 0.12%
- viability, T/C (second compound 10 µM, first compound 0.001 µM): 0.17%
- viability, T/C (second compound 10 µM, first compound 0.00316 µM): 0.13%
- viability, T/C (second compound 10 µM, first compound 0.01 µM): 0.13%
- viability, T/C [17]: 1.65%
- viability, T/C [18]: 0.15%

- IC50 (curve of compound): 672 nM and 654 nM
SMILES: O=c1[nH]cc(F)c(=O)[nH]1
- viability, T/C (compound 0.0316 µM): 94% and 97.5%
- viability, T/C (compound 0.1 µM): 95.6% and 111%
- viability, T/C (compound 0.316 µM): 65.3% and 61.7%
- viability, T/C (compound 1 µM): 44.4% and 46.8%
- viability, T/C (compound 3.16 µM): 35.2% and 39.2%
- viability, T/C (compound 10 µM): 39.2% and 43.4%
